Assays:
spermidine synthase [1] = biological target: T1, spermidine synthase (Homo sapiens, UniProt P19623); assay: Activity measurement of spermidine synthase by ELISA; assay type: biochemical; conditions: measured by ELISA; read-out: IC50 value, inhibition of MTA production by SPDS
T1 construct: Human SPDS gene was amplified by PCR, inserted into an entry vector pENTR11; made in house; host or cells: HEK293 cells (transient transfection, Lipofectamine 2000)
T1 sequence (P19623 1-302): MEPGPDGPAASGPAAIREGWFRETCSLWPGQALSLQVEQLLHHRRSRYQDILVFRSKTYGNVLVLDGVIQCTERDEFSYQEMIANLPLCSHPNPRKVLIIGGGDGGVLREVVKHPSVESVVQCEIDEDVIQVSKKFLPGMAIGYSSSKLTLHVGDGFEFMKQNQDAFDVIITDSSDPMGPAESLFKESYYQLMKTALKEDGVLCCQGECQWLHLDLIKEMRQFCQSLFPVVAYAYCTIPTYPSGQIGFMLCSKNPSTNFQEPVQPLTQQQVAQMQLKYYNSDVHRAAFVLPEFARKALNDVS
Procedure: The amount of MTA in each well was calculated from the competitive curve described above, and the produced amount of MTA per an enzyme amount and a reaction time was determined to be defined as an enzyme activity. It was confirmed that a production amount of MTA was increased depending on a concentration of spermidine synthase and a reaction time. […] Pharma., 1991.). […] By detecting a production amount of MTA according to the present method, an inhibition effect of the test substance was measured.

spermidine synthase [2] = biological target: T1, spermidine synthase; assay: Activity measurement of spermidine synthase by HTRF; assay type: biochemical; conditions: measured by HTRF; read-out: IC50 value, inhibition of MTA production by SPDS
Procedure: 10 μL of spermidine synthase diluted with buffer C was added into 384-well assay plate (black, Corning). Then, to the plate was added 10 μl of the above substrate mixture, and reaction was conducted at room temperature. […] Then, each well was added with 20 μl of europium cryptate-labeled anti-MTA-7H8 antibody made to 288 ng/ml with buffer D, and the mixture was reacted for 16 hours at room temperature. Fluorescence of each well was measured by Rubyster (BMG Labtechnologis). An amount of MTA in each well was calculated from a standard curve, and converted to an amount of MTA per an enzyme amount and a reaction time, which was an enzyme activity. In FIG. 4, open circles represent reactivity to dcSAM and filled circles represent reactivity to MTA. […] It was confirmed that a production amount of MTA was increased depending on a concentration of spermidine synthase and a reaction time. […] By detecting a production amount of MTA according to the present method, an inhibition effect of the test substance was measured.

spermidine synthase [3] = conditions: Shirahata et al., Biochem. Pharma., 1991; read-out: IC50 value in a publication; cited from earlier work
[4] = tested on: interaction of proteoglycan units with collagen; conditions: column of Sepharose 4B-collagen loaded with proteoglycan subunits; cited from earlier work
[5] = biological target: T2, alkaline phosphatase produced from cartilage (Homo sapiens, UniProt P05186); conditions: cited from earlier work
T2 sequence (P05186 18-501): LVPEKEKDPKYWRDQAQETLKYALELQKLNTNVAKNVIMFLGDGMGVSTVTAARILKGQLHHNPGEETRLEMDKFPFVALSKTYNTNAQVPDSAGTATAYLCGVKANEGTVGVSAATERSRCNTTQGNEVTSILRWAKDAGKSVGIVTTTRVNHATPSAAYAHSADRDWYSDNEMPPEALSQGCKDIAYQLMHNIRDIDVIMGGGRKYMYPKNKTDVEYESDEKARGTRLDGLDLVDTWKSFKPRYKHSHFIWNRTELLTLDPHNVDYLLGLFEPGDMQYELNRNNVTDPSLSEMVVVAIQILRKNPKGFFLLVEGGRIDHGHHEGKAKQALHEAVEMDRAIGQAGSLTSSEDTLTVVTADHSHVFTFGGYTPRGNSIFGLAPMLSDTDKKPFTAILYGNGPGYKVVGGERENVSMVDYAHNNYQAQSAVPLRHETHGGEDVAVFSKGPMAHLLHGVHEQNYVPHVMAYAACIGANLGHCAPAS

Row | IC50 (spermidine synthase [1]) [µM] | IC50 (spermidine synthase [2]) [µM] | Structure (SMILES) | IC50 (spermidine synthase [3]) [µM] | capacity of displacing proteoglycan subunits from the column [4] | proteoglycan subunits removed from the column [4] | effect on activity of alkaline phosphatase produced from cartilage [5]
1 | 1 | 1.1 | CC1CCC(N)CC1 (stereo not drawn) [4-methylcyclohexylamine] | 1.7 | – | – | –
2 | – | – | NCCCCN [putrescine] | – | without effect | – | –
3 | – | – | NCCCCNCCCN [spermidine] | – | showed the capacity of displacing proteoglycan subunits | about 90% | increased the activity
4 | – | – | NCCCNCCCCNCCCN [spermine] | – | without effect | – | increased the activity

From patent US20070280946A1, “Antibody to 5' -Deoxy-5' - Methylthioadenosine And Uses Thereof” (priority 2004, published 2007)
